IC50 data for four compounds are collected here from patent publication US20140088114A1, “FUSED BICYCLIC KINASE INHIBITORS” (OSI Pharmaceuticals ,LLC, priority 2011, published 2014).

The target in one experiment is T1, Aurora B (Homo sapiens, UniProt Q96GD4).
T1 construct: HT-29 cells grown in complete growth media; endogenous in cells; host or cells: HT-29
The experiment can be described thus: Aurora B cell mechanistic assay (HT-29), phospho-Histone H3 (Ser10) ELISA. In kind it is cell-based. The conditions noted are these: HT-29 cell line, inhibition of phospho-Histone H3 (Ser10), at least duplicate experiments (italicized if single); read-out: Aurora B mech IC50. Here is the method:
The cellular activity of the compounds of the present invention against Aurora B may be determined by the following procedure. HT-29 cells grown in complete growth media (McCoy's 5A, 10% FCS, 1% L-glutamine) were plated into wells of a 96 well tissue culture plate (Falcon 3072) at a cell density of 4×10^4 cells/0.09 ml media/well. Cells were subsequently incubated overnight in a 5% CO2 humidified 37° C. incubator. The following day 10 μl of a 10× stock of test compound serially diluted in media was added to the cells and incubated for 1 h at 37° C. at which time Calyculin A (Cell Signaling #9902) was added at a concentration of 100 nM and cells incubated for an additional 30 minutes in a 5% CO2 humidified 37° C. incubator. Media was then aspirated and cells lysed using a Triton based lysis buffer. Lysates were transferred to a pre-coated anti-Histone H3 antibody coated plate supplied by Cell Signaling in their PathScan phospho-Histone H3 (Ser10) ELISA kit (#7155). After an overnight incubation with lysate the ELISA was continued following the manufacturer's instructions. Signal was measured on a Wallac Victor plate reader at 450 nm. DMSO control treated cells served as 100% signal and an Aurora B kinase inhibitor served as 100% inhibition. The percent inhibition of phospho-Histone H3 (Ser10) was expressed as % control. IC50 values were calculated from the percent control data using a standard four-parameter model.
The IC50 values of exemplary compounds of the present invention determined in a Aurora B cell mechanistic assay using the HT-29 cell line according to the procedures described herein in at least duplicate experiments are abbreviated as follows and are shown in Table 4: A, IC50≦0.03 μM; B, 0.03 μM<IC50≦0.1 μM; C, 0.1 μM<IC50≦1 μM; D, 1 μM<IC50≦3 μM; ND, not determined. If only data from single experiments are available, the abbreviations are italicized. The Example # of Table 4 corresponds to the compound example number as illustrated in the Examples section.
(In general: ELISA stands for enzyme-linked immunosorbent assay.)

The next experiment deals with T2, RON (Homo sapiens, UniProt Q04912).
T2 construct: expressed in transfected cells; host or cells: HeLa
T2 sequence (Q04912 913-1400 limits assumed): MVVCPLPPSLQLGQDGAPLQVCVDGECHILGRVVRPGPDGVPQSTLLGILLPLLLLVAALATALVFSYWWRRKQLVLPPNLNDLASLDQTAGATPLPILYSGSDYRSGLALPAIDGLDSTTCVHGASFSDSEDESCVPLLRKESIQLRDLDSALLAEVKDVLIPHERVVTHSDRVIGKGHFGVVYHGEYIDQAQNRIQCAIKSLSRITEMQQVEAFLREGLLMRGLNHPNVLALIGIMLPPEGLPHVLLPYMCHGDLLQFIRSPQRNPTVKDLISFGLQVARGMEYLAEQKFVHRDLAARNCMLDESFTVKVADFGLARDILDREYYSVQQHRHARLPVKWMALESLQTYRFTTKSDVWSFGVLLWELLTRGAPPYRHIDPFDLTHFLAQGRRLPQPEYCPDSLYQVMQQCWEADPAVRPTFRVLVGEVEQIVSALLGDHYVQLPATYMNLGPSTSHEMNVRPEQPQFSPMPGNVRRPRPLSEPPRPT
The experiment can be described thus: sfRON cell mechanistic assay (HeLa), phosphorylated RON. The class given is cell-based. As for the experimental part:
The cellular activity of the compounds of the present invention against RON may be determined by the following procedure. HeLa cells were plated in Falcon 3072 96-well plates in growth media (DMEM, 10% FBS, 1% L-glutamine) at a density of 10000 cells/well and incubated at 37° C., 5% CO2 overnight. The following day, cells were transfected with 0.2 μg sfRON-pcDNA plasmid DNA with 0.5 μL Lipofectamine2000 per well in the presence of 50 μL OPTI-MEM, incubated at 37° C., 5% CO2 overnight. Costar 3915 96-well assay plates were coated with rabbit Anti-RON antibody at 2.0 μg/mL, sealed, and incubated overnight at 4° C. On the third day, coated plates were washed with PBS and blocked with 3% BSA. For the sfRON transfected cells, one-tenth volume of a 10× concentration of compounds was added to the wells in a 6-point dilution series. The dilution series was composed of an initial 1:5 dilution of a 10 mM DMSO stock solution of compound in DMSO, followed by a 1:10 dilution in growth media, for a final DMSO concentration on cells of 0.5%. Control wells were treated with 0.5% DMSO. The typical range of dilution was 10 μM to 3 nM. Once compound was added to the cells, plates were incubated for four hours at 37° C., 5% CO2. Plates were then washed in PBS, and lysed in triton-based lysis buffer. Lysates were transferred to the blocked capture plates. The phosphorylated RON levels were measured by incubating with a Goat polyclonal antibody against phosphorylated RON ([pYpY1238/1239]) followed by an anti-Goat antibody conjugated to HRP. Signal was measured on a Wallac Victor plate reader with luminance. The DMSO signal of the control wells was defined as 100% and the percent of inhibition of phosphorylated RON was expressed as percent of control. IC50 values were determined from the percent of control data using a standard four-parameter model.
The IC50 values of exemplary compounds of the present invention determined in a sfRON cell mechanistic assay using the HeLa cell line according to the procedures described herein in at least duplicate experiments are abbreviated as follows and are shown in Table 3: A, IC50≦0.03 μM; B, 0.03 μM<IC50≦0.1 μM; C, 0.1 μM<IC50≦1 μM; D, 1 μM<IC50≦3 μM; ND, not determined. The Example # of Table 3 corresponds to the compound example number as illustrated in the Examples section.

The mark [1] stands for this setting: Table 6: comparison X = C1-3haloalkyl vs. X = C1-3alkyl, read-out: sfRON cell mechanistic.
[2] abbreviates: sfRON transfected HeLa cells, four hours incubation, inhibition of phosphorylated RON, at least duplicate experiments, read-out: sfRON mech IC50.

Where two headings read alike, the source gives them in different places. A value given as a limit tells only on which side of the number the result lay.

T1 sequence (Q96GD4 whole entry): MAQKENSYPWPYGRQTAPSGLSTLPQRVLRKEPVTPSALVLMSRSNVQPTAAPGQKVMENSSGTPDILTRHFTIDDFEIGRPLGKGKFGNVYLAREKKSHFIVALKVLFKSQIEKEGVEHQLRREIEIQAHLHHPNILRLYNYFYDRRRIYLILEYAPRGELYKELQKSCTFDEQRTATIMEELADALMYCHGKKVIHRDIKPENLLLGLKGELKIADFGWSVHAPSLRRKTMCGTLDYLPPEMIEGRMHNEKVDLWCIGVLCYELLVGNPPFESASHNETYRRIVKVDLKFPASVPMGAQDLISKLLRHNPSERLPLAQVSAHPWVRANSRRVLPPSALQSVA

As for `Cn1cc(-c2cnc3[nH]cc(C(CF)c4c(Cl)ccc(F)c4Cl)c3c2)cn1` (stereo not drawn) [Example 1, 3-[1-(2,6-Dichloro-3-fluorophenyl)-2-fluoroethyl]-5-(1-methyl-1H-pyrazol-4-yl)-1H-pyrrolo[2,3-b]pyridine], the IC50 on Aurora B, on RON (setting [1]) and on RON (setting [2]) was 0.1 to 1 µM in each case.
Turning to `O[C@H]1CC[C@H](n2cc(-c3cnc4[nH]cc([C@@H](CF)c5c(OC(F)F)ccc(F)c5Cl)c4c3)cn2)CC1` [Example 4, trans-4-[4-(3-{(1R)-1-[2-Chloro-6-(difluoromethoxy)-3-fluorophenyl]-2-fluoroethyl}-1H-pyrrolo[2,3-b]pyridin-5-yl)-1H-pyrazol-1-yl]cyclohexanol], the IC50 was in the range of 0.1 to 1 µM at Aurora B, 0.03 to 0.1 µM on RON (setting [1]) and 0.03 to 0.1 µM at RON (setting [2]).
Turning to `O[C@H]1CC[C@H](n2cc(-c3cnc4[nH]cc([C@H](CF)c5c(OC(F)F)ccc(F)c5Cl)c4c3)cn2)CC1` [Example 5, trans-4-[4-(3-{(1S)-1-[2-Chloro-6-(difluoromethoxy)-3-fluorophenyl]-2-fluoroethyl}-1H-pyrrolo[2,3-b]pyridin-5-yl)-1H-pyrazol-1-yl]cyclohexanol], the IC50 on Aurora B, on RON (setting [1]) and on RON (setting [2]) was ≤ 0.03 µM in each case.
Take `COc1ccc(F)c(Cl)c1[C@@H](CF)c1c[nH]c2ncc(-c3cnn([C@H]4CC[C@H](O)CC4)c3)cc12` [Example 3, trans-4-(4-{3-[(1S)-1-(2-chloro-3-fluoro-6-methoxyphenyl)-2-fluoroethyl]-1H-pyrrolo[2,3-b]pyridin-5-yl}-1H-pyrazol-1-yl)cyclohexanol]: the IC50 at Aurora B was ≤ 0.03 µM; on RON (setting [1]), 0.03 to 0.1 µM; on RON (setting [2]), 0.03 to 0.1 µM.
